Converted amounts (≈) assume the structure as drawn. Read-outs that look alike come from different tables or passages of the source.
Key:
E. faecalis GC 2265 = assay: MIC, broth microdilution; conditions: Enterococcus faecalis, GC2265, E. faecalis GC 2265
S. pyogenes GC 4563 = assay: MIC, broth microdilution; conditions: Streptococcus pyogenes, GC4563, S. pyogenes GC 4563
E. coli GC 3226 = assay: MIC, broth microdilution; conditions: Escherichia coli, GC3226, E. coli GC 3226
S. pneumoniae+ GC 4465 = assay: MIC, broth microdilution; conditions: Streptococcus pneumoniae, S. pneumoniae+ GC 4465
c. albicans GC 3066 = assay: MIC, broth microdilution
E. faecium GC 2243 = assay: MIC, broth microdilution; conditions: Enterococcus faecium, GC2243, E. faecium GC 2243
S. aureus GC 6469 = assay: MIC, broth microdilution; conditions: Staphylococcus aureus, GC6469, S. aureus GC 6469
S. aureus GC 4536 = assay: MIC, broth microdilution; conditions: Staphylococcus aureus, GC4536, S. aureus GC 4536
E. coli GC 1073 = assay: MIC, broth microdilution; conditions: Escherichia coli, GC1073, E. coli GC 1073
E. coli = assay: Range of MIC for E. coli strains; conditions: Escherichia coli
S. aureus GC 6335 = assay: MIC, broth microdilution; conditions: Staphylococcus aureus, GC6335, S. aureus GC 6335
S. aureus GC 2216 = assay: MIC, broth microdilution; conditions: Staphylococcus aureus, GC2216, S. aureus GC 2216
E. faecalis GC 2242 = assay: MIC, broth microdilution; conditions: Enterococcus faecalis, GC2242, E. faecalis GC 2242
E. coli GC 2271 = assay: MIC, broth microdilution; conditions: Escherichia coli, GC2271, E. coli GC 2271
E. coli GC 2232 = assay: MIC, broth microdilution; conditions: Escherichia coli, GC2232, E. coli GC 2232
S. agalactiae GC 4564 = assay: MIC, broth microdilution; conditions: Streptococcus agalactiae, GC4564, S. agalactiae GC 4564
E. coli GC 4559 = assay: MIC, broth microdilution; conditions: Escherichia coli, GC4559, E. coli GC 4559
P. aeruginosa GC 2214 = assay: MIC, broth microdilution; conditions: Pseudomonas aeruginosa, GC2214, P. aeruginosa GC 2214
Description: Antimicrobial susceptibility testing. The in vitro activities of the antibiotics are determined by the broth microdilution method as recommended by the National Committee for Clinical Laboratory Standards (NCCLS) (1). Mueller-Hinton II broth (MHBII)(BBL Cockeysville, Md.) is the medium employed in the testing procedures. Microtiter plates containing serial dilutions of each antimicrobial agent are inoculated with each organism to yield the appropriate density (10^5 CFU/ml) in a 100 μl final volume. The plates are incubated for 18-22 hours at 35° C. in ambient air.
Representative compounds were first incubated in mouse serum for an hour prior to the in vitro testing against a panel of selected gram-positive and gram-negative bacteria strains. All compounds were also pre-incubated in water for an hour prior to testing as control.

Staph. aureus Smith = assay: In vivo activity (oral, iv; ED50) against Staph. aureus Smith in mice
Description: Representative examples of compounds of Formula I were tested for the oral efficacy using S. aureus Smith in mice.

E. coli GC 2270 = assay: MIC, broth microdilution; conditions: Escherichia coli, GC2270, E. coli GC 2270
[1] = c. albicans GC 3066, Water pre-incubation
[2] = 20 h, read-out: Range of MIC, E. coli (Mouse Serum)
[3] = read-out: Minimum inhibitory concentration (MIC), E. coli (mouse serum)
[4] = Staphylococcus aureus, in Mus musculus, po, read-out: ED50 Staph Smith SOD
[5] = iv, read-out: ED50 Staph Smith SIV

CCCCN(CC(=O)Nc1cc(N(C)C)c2c(c1O)C(=O)C1=C(O)[C@]3(O)C(=O)C(C(N)=O)=C(O)[C@@H](N(C)C)C3CC1C2)C(=O)OCOC(=O)c1ccc(C)cc1 (stereo partly drawn) [Example 3, ({[(2-{[(7S,10aS)-9-(aminocarbonyl)-4,7-bis(dimethylamino)-1,8,10a,11-tetrahydroxy-10,12-dioxo-5,5a,6,6a,7,10,10a,12-octahydrotetracen-2-yl]amino}-2-oxoethyl)(butyl)amino]carbonyl}oxy)methyl 4-methylbenzoate]
MIC (E. faecalis GC 2265; Mouse Serum pre-incubation): 2 µg/mL (≈ 2.57 µM) | MIC (E. faecalis GC 2265; Water pre-incubation): 32 µg/mL (≈ 41.1 µM) | MIC (S. pyogenes GC 4563; Mouse Serum pre-incubation): 0.12 µg/mL (≈ 0.154 µM) | MIC (S. pyogenes GC 4563; Water pre-incubation): 0.25 µg/mL (≈ 0.321 µM) | MIC (E. coli GC 3226; Mouse Serum pre-incubation): 2 µg/mL (≈ 2.57 µM) | MIC (E. coli GC 3226; Water pre-incubation): > 64 µg/mL | MIC (S. pneumoniae+ GC 4465; Mouse Serum pre-incubation): 1 µg/mL (≈ 1.29 µM) | MIC (S. pneumoniae+ GC 4465; Water pre-incubation): 2 µg/mL (≈ 2.57 µM) | MIC (c. albicans GC 3066; Candida albicans, GC3066): > 64 µg/mL | MIC (c. albicans GC 3066; [1]): >64 UG/ML | MIC (E. faecium GC 2243; Mouse Serum pre-incubation): 1 µg/mL (≈ 1.29 µM) | MIC (E. faecium GC 2243; Water pre-incubation): 4 µg/mL (≈ 5.14 µM) | MIC (S. aureus GC 6469; Mouse Serum pre-incubation): 4 µg/mL (≈ 5.14 µM) | MIC (S. aureus GC 6469; Water pre-incubation): 32 µg/mL (≈ 41.1 µM) | MIC (S. aureus GC 4536; Mouse Serum pre-incubation): 2 µg/mL (≈ 2.57 µM) | MIC (S. aureus GC 4536; Water pre-incubation): 4 µg/mL (≈ 5.14 µM) | MIC (E. coli GC 1073; Mouse Serum pre-incubation): 2 µg/mL (≈ 2.57 µM) | MIC (E. coli GC 1073; Water pre-incubation): > 64 µg/mL | MIC (E. coli; [2]): 1 to 2 µg/mL (≈ 1.29 to 2.57 µM) | MIC (E. coli; [3]): 1 to 2 µg/mL (≈ 1.29 to 2.57 µM) | MIC (E. coli; read-out: Minimum inhibitory concentration (MIC), E. coli (water)): > 64 µg/mL | MIC (E. coli; read-out: Range of MIC, E. coli (Water)): > 64 µg/mL | MIC (S. aureus GC 6335; Mouse Serum pre-incubation): 2 µg/mL (≈ 2.57 µM) | MIC (S. aureus GC 6335; Water pre-incubation): 8 µg/mL (≈ 10.3 µM) | MIC (S. aureus GC 2216; Mouse Serum pre-incubation): 1 µg/mL (≈ 1.29 µM) | MIC (S. aureus GC 2216; Water pre-incubation): 4 µg/mL (≈ 5.14 µM) | MIC (E. faecalis GC 2242; Mouse Serum pre-incubation): 2 µg/mL (≈ 2.57 µM) | MIC (E. faecalis GC 2242; Water pre-incubation): 16 µg/mL (≈ 20.6 µM) | MIC (E. coli GC 2271; Mouse Serum pre-incubation): 1 µg/mL (≈ 1.29 µM) | MIC (E. coli GC 2271; Water pre-incubation): > 64 µg/mL | MIC (E. coli GC 2232; Mouse Serum pre-incubation): 2 µg/mL (≈ 2.57 µM) | MIC (E. coli GC 2232; Water pre-incubation): > 64 µg/mL | MIC (S. agalactiae GC 4564; Mouse Serum pre-incubation): 1 µg/mL (≈ 1.29 µM) | MIC (S. agalactiae GC 4564; Water pre-incubation): 2 µg/mL (≈ 2.57 µM) | MIC (E. coli GC 4559; Mouse Serum pre-incubation): 2 µg/mL (≈ 2.57 µM) | MIC (E. coli GC 4559; Water pre-incubation): > 64 µg/mL | MIC (P. aeruginosa GC 2214; Mouse Serum pre-incubation): 32 µg/mL (≈ 41.1 µM) | MIC (P. aeruginosa GC 2214; Water pre-incubation): > 64 µg/mL | ED50 (Staph. aureus Smith; [4]): 16.1 mg/kg | ED50 (Staph. aureus Smith; [5]): 0.59 mg/kg | MIC (E. coli GC 2270; Mouse Serum pre-incubation): 1 µg/mL (≈ 1.29 µM) | MIC (E. coli GC 2270; Water pre-incubation): > 64 µg/mL

CCCCN(CC(=O)Nc1cc(N(C)C)c2c(c1O)C(=O)C1=C(O)[C@]3(O)C(=O)C(C(N)=O)=C(O)[C@@H](N(C)C)[C@@H]3C[C@@H]1C2)C(=O)OCOC(=O)c1ccc(F)cc1 [Example 4, ({[(2-{[(5aR,6aS,7S,10aS)-9-(aminocarbonyl)-4,7-bis(dimethylamino)-1,8,10a,11-tetrahydroxy-10,12-dioxo-5,5a,6,6a,7,10,10a,12-octahydrotetracen-2-yl]amino}-2-oxoethyl)(butyl)amino]carbonyl}oxy)methyl 4-fluorobenzoate]
MIC (E. faecalis GC 2265; Mouse Serum pre-incubation): 2 µg/mL (≈ 2.56 µM) | MIC (E. faecalis GC 2265; Water pre-incubation): 8 µg/mL (≈ 10.2 µM) | MIC (S. pyogenes GC 4563; Mouse Serum pre-incubation): 0.12 µg/mL (≈ 0.153 µM) | MIC (S. pyogenes GC 4563; Water pre-incubation): 0.25 µg/mL (≈ 0.32 µM) | MIC (E. coli GC 3226; Mouse Serum pre-incubation): 2 µg/mL (≈ 2.56 µM) | MIC (E. coli GC 3226; Water pre-incubation): 64 µg/mL (≈ 81.9 µM) | MIC (S. pneumoniae+ GC 4465; Mouse Serum pre-incubation): 2 µg/mL (≈ 2.56 µM) | MIC (S. pneumoniae+ GC 4465; Water pre-incubation): 4 µg/mL (≈ 5.12 µM) | MIC (c. albicans GC 3066; Candida albicans, GC3066): > 64 µg/mL | MIC (c. albicans GC 3066; [1]): >64 UG/ML | MIC (E. faecium GC 2243; Mouse Serum pre-incubation): 0.5 µg/mL (≈ 0.64 µM) | MIC (E. faecium GC 2243; Water pre-incubation): 2 µg/mL (≈ 2.56 µM) | MIC (S. aureus GC 6469; Mouse Serum pre-incubation): 2 µg/mL (≈ 2.56 µM) | MIC (S. aureus GC 6469; Water pre-incubation): 16 µg/mL (≈ 20.5 µM) | MIC (S. aureus GC 4536; Mouse Serum pre-incubation): 1 µg/mL (≈ 1.28 µM) | MIC (S. aureus GC 4536; Water pre-incubation): 4 µg/mL (≈ 5.12 µM) | MIC (E. coli GC 1073; Mouse Serum pre-incubation): 1 µg/mL (≈ 1.28 µM) | MIC (E. coli GC 1073; Water pre-incubation): > 64 µg/mL | MIC (E. coli; [2]): 0.5 to 2 µg/mL (≈ 0.64 to 2.56 µM) | MIC (E. coli; read-out: Minimum inhibitory concentration (MIC), E. coli (Human Serum)): 8 to 32 µg/mL (≈ 10.2 to 40.9 µM) | MIC (E. coli; [3]): 0.5 to 2 µg/mL (≈ 0.64 to 2.56 µM) | MIC (S. aureus GC 6335; Mouse Serum pre-incubation): 1 µg/mL (≈ 1.28 µM) | MIC (S. aureus GC 6335; Water pre-incubation): 4 µg/mL (≈ 5.12 µM) | MIC (S. aureus GC 2216; Mouse Serum pre-incubation): 0.5 µg/mL (≈ 0.64 µM) | MIC (S. aureus GC 2216; Water pre-incubation): 4 µg/mL (≈ 5.12 µM) | MIC (E. faecalis GC 2242; Mouse Serum pre-incubation): 1 µg/mL (≈ 1.28 µM) | MIC (E. faecalis GC 2242; Water pre-incubation): 4 µg/mL (≈ 5.12 µM) | MIC (E. coli GC 2271; Mouse Serum pre-incubation): 0.5 µg/mL (≈ 0.64 µM) | MIC (E. coli GC 2271; Water pre-incubation): 64 µg/mL (≈ 81.9 µM) | MIC (E. coli GC 2232; Mouse Serum pre-incubation): 1 µg/mL (≈ 1.28 µM) | MIC (E. coli GC 2232; Water pre-incubation): 64 µg/mL (≈ 81.9 µM) | MIC (S. agalactiae GC 4564; Mouse Serum pre-incubation): 0.25 µg/mL (≈ 0.32 µM) | MIC (S. agalactiae GC 4564; Water pre-incubation): 0.5 µg/mL (≈ 0.64 µM) | MIC (E. coli GC 4559; Mouse Serum pre-incubation): 2 µg/mL (≈ 2.56 µM) | MIC (E. coli GC 4559; Water pre-incubation): > 64 µg/mL | MIC (P. aeruginosa GC 2214; Mouse Serum pre-incubation): 32 µg/mL (≈ 40.9 µM) | MIC (P. aeruginosa GC 2214; Water pre-incubation): > 64 µg/mL | ED50 (Staph. aureus Smith; [4]): 11.6 mg/kg | ED50 (Staph. aureus Smith; [5]): 0.39 mg/kg | MIC (E. coli GC 2270; Mouse Serum pre-incubation): 1 µg/mL (≈ 1.28 µM) | MIC (E. coli GC 2270; Water pre-incubation): 64 µg/mL (≈ 81.9 µM)

Reference: patent US20070049564A1 (Wyeth, priority 2005, published 2007)
